Data reported in patent EP0399422A1, “Benzocycloalkane derivatives and production thereof” (Takeda Chemical Industries, Ltd., priority 1989, dated 1990).
Marks after values point to notes of the source that are not given here.

The molecules below were run on cholesterol-loaded rats (assay: Plasma cholesterol lowering activity in cholesterol-loaded rats). Settings: 1% cholesterol diet containing 0.01% test compound for 4 days; dose 8.5 mg/kg/day; control group 266 + 46; p<0.01.
Type: in vivo, Male Sprague-Dawley rats
Method: Male Sprague-Dawley rats of 7 weeks of age were fed with a 1% cholesterol diet (containing 0.5% cholic acid and 5% olive oil) for 3 days, then grouped by plasma cholesterol level and further fed with the same diet containing 0.01% test compound for 4 days. Blood samples were collected at 8:30 a.m. to 10:00 a.m. while the animals were satiated, and plasma cholesterol levels were determined enzymatically. Intakes of the compound were calculated from food intake data.

SMILES	Plasma cholesterol
O=C(Nc1ccc(F)cc1F)N(Cc1ccccc1Cl)C1Cc2ccccc2C1 [Example 1, N-(2-chlorobenzyl)-N′-(2,4-difluorophenyl)-N-(2-indanyl)urea]	128 + 47* mg/dl

The molecules below were run on Acyl-CoA:cholesterol acyl transferase (ACAT) (assay: Acyl-CoA:cholesterol acyl transferase (ACAT) inhibiting activity). Settings: inhibition of labeled cholesterol ester formation at 10⁻⁶ M of the test compounds; small intestine mucosa microsome fraction.
Type: biochemical, male Sprague-Dawley rats
Parameters: tested at 1 µM
Method: An ACAT enzyme preparation was obtained from the small intestine mucosa microsome fraction from male Sprague-Dawley rats of 6 weeks of age fasted for 20 hours, as described by Heider et al. [Journal of Lipid Research, 24, 1127 (1982)].
The ACAT activity was calculated by determining the yield of a labeled cholesterol ester from [1-¹⁴C]oleoyl-CoA and endogenous cholesterol using the method of Helgerud et al. [Journal of Lipid Research, 22, 271 (1981)].
The inhibition percentages of the labeled cholesterol ester formation at 10⁻⁶ M of the test compounds are shown in Table 1 as ACAT inhibiting activity indices.

SMILES	% ACAT inhibition
O=C(Nc1ccc(F)cc1F)N(Cc1ccccc1Cl)C1Cc2ccccc2C1 [Example 1, N-(2-chlorobenzyl)-N′-(2,4-difluorophenyl)-N-(2-indanyl)urea]	84%
COc1ccc(OC)c2c1CC(N(Cc1ccccc1)C(=O)Nc1ccc(F)cc1F)C2 [Example 28, N-Benzyl-N′-(2,4-difluorophenyl)-N-(4,7-dimethoxy-2-indanyl)urea]	56%
COc1cc(CN(C(=O)Nc2ccc(F)cc2F)C2Cc3ccccc3C2)ccc1O [Example 33, N-(2,4-Difluorophenyl)-N′-(4-hydroxy-3-methoxybenzyl)-N′-(2-indanyl)urea]	57%
COc1cc(CN(C(=O)Nc2ccc(F)cc2F)C2Cc3ccccc3C2)c(OC)c(C)c1C [Example 35, N-(2,4-Difluorophenyl)-N′-(2-indanyl)-N′-(2,5-dimethoxy-3,4-dimethylbenzyl)urea]	58%
COc1cc(C)c(CN(C(=O)Nc2ccc(F)cc2F)C2Cc3ccccc3C2)cc1C [Example 36, N-(2,4-Difluorophenyl)-N′-(2-indanyl)-N′-(4-methoxy-2,5-dimethylbenzyl)urea]	72%
Cc1cc(CN(C(=O)Nc2ccc(F)cc2F)C2Cc3ccccc3C2)c(C)cc1O [Example 37, N-(2,4-Difluorophenyl)-N′-(4-hydroxy-2,5-dimethylbenzyl)-N′-(2-indanyl)urea]	93%
Cc1cc(CN(C(=O)Nc2ccc(F)cc2F)C2Cc3ccccc3C2)c(C)c(C)c1O [Example 39, N-(2,4-Difluorophenyl)-N′-(4-hydroxy-2,3,5-trimethylbenzyl)-N′-(2-indanyl)urea]	89%
CC(C)c1cc(CN(C(=O)Nc2ccc(F)cc2F)C2Cc3ccccc3C2)cc(C(C)C)c1O [Example 40, N-(2,4-Difluorophenyl)-N′-(4-hydroxy-3,5-diisopropylbenzyl)-N′-(2-indanyl)urea]	83%
Cc1cc(O)c(C(C)(C)C)cc1CN(C(=O)Nc1ccc(F)cc1F)C1Cc2ccccc2C1 [Example 41, N-(5-tert-Butyl-4-hydroxy-2-methylbenzyl)-N′-(2,4-difluorophenyl)-N-(2-indanyl)urea]	95%
CC(C)(C)c1cc(CN(C(=O)Nc2ccc(F)cc2F)C2Cc3ccccc3C2)cc(C(C)(C)C)c1O [Example 42, N-(3,5-Di-tert-butyl-4-hydroxybenzyl)-N′-(2,4-difluorophenyl)-N-(2-indanyl)urea]	62%
O=C(Nc1ccc(F)cc1F)N(Cc1ccccc1)C1CCc2ccccc2C1 (centres unmarked) [Example 44, N-Benzyl-N′-(2,4-difluorophenyl)-N-(1,2,3,4-tetrahydro-2-naphthyl)urea]	63%
Cc1cc(O)c(C(C)C)cc1CN(C(=O)Nc1ccc(F)cc1F)C1Cc2ccccc2C1 [Example 45, N-(2,4-Difluorophenyl)-N′-(4-hydroxy-5-isopropyl-2-methylbenzyl)-N′-(2-indanyl)urea]	96%
Cc1cc(CN(C(=O)Nc2ccc(F)cc2F)C2Cc3ccccc3C2)c(C(C)C)cc1O [Example 46, N-(2,4-Difluorophenyl)-N′-(4-hydroxy-2-isopropyl-5-methylbenzyl)-N′-(2-indanyl)urea]	77%
O=C(Nc1ccc(F)cc1F)N(Cc1ccccc1)C1CCCc2ccccc2C1 (centres unmarked) [Example 49, N-Benzyl-N′-(2,4-difluorophenyl)-N-(6,7,8,9-tetrahydro-5H-6-benzocycloheptenyl)urea]	89%
Cc1cc(O)c(C(C)(C)C)cc1CN(C(=O)Nc1ccc(F)cc1F)C1CCCc2ccccc2C1 (centres unmarked) [Example 50, N-(5-tert-Butyl-4-hydroxy-2-methylbenzyl)-N′-(2,4-difluorophenyl)-N-(6,7,8,9-tetrahydro-5H-6-benzocycloheptenyl)urea]	85%
Cc1ccc(C)c(CN(C(=O)Nc2ccc(F)cc2F)C2CCCc3ccccc3C2)c1 (centres unmarked) [Example 56, N-(2,4-Difluorophenyl)-N′-(6,7,8,9-tetrahydro-5H-6-benzocycloheptenyl)-N′-(2,5-dimethylbenzyl)urea]	79%
O=C(Nc1ccc(F)cc1F)N(Cc1ccccc1)C1CCc2ccccc21 (centres unmarked) [Example 57, N-Benzyl-N′-(2,4-difluorophenyl)-N-(1-indanyl)urea]	84%
O=C(Nc1ccc(F)cc1F)N(Cc1ccccc1)C1CCCc2ccccc21 (centres unmarked) [Example 58, N-Benzyl-N′-(2,4-difluorophenyl)-N-(1,2,3,4-tetrahydro-1-naphthyl)urea]	94%
O=C(Nc1ccc(F)cc1F)N(Cc1ccccc1)C1CCCCc2ccccc21 (centres unmarked) [Example 59, N-Benzyl-N′-(2,4-difluorophenyl)-N-(6,7,8,9-tetrahydro-5H-5-benzocycloheptenyl)urea]	80%
COc1cc(CN(C(=O)Nc2ccc(F)cc2F)C2CCc3ccccc32)cc(OC)c1O (centres unmarked) [Example 60, N-(2,4-Difluorophenyl)-N′-(4-hydroxy-3,5-dimethoxybenzyl)-N′-(1-indanyl)urea]	83%
COc1cc(CN(C(=O)Nc2ccc(F)cc2F)C2CCCc3ccccc32)cc(OC)c1O (centres unmarked) [Example 61, N-(2,4-Difluorophenyl)-N′-(4-hydroxy-3,5-dimethoxybenzyl)-N′-(1,2,3,4-tetrahydro-1-naphthyl)urea]	53%
COc1cc(CN(C(=O)Nc2ccc(F)cc2F)C2CCCCc3ccccc32)cc(OC)c1O (centres unmarked) [Example 62, N-(2,4-Difluorophenyl)-N′-(6,7,8,9-tetrahydro-5H-5-benzocycloheptenyl)-N′-(4-hydroxy-3,5-dimethoxybenzyl)urea]	69%
